Measurements taken from US20160009686A1, “VEGFR3 INHIBITORS” (CANCER THERAPEUTICS CRC PTY LIMITED, priority 2012, published 2016).
Blank lines part the entries; values can stand above or below the molecule they belong to.

Experiments:
[1] = target: T1, FAK (Homo sapiens, UniProt Q05397); test: P397Y-FAK Inhibition MSD Platform Cellular Biomarker Assay; format: cell-based; conditions: MDA-231-LNA cells, treated for 1 hour; pFAK-397 levels
T1 construct: endogenous in cells; host or cells: MDA-231-LNA

[2] = target: T2, VEGFR2 (Homo sapiens, UniProt P35968); test: VEGFR2 Phospho ELISA Assay; format: cell-based; conditions: HUVEC, treated for 1 hour, VEGF stimulated; phospho VEGFR2 relative to Total VEGFR2
T2 construct: host or cells: HUVEC

[3] = target: VEGFR3 cytoplasmic domain (Homo sapiens, UniProt P35916); test: VEGFR3 Biochemical Assay (AlphaScreen); conditions: GST-fusion enzyme, 500 μM ATP, 90 minutes at 30 degree Celsius (modified form in some cases: Hexa-His-fusion enzyme, 1 μM ATP); read-out: IC50
[4] = target: VEGFR3 (Homo sapiens, UniProt P35916); test: VEGFR3 Phospho ELISA Assay; format: cell-based; conditions: HMVEC-dLyAD cells, treated for 1 hour, VEGFC stimulated; phospho VEGFR3 relative to Total VEGFR3
Chain of VEGFR3 (P35916 25-1363): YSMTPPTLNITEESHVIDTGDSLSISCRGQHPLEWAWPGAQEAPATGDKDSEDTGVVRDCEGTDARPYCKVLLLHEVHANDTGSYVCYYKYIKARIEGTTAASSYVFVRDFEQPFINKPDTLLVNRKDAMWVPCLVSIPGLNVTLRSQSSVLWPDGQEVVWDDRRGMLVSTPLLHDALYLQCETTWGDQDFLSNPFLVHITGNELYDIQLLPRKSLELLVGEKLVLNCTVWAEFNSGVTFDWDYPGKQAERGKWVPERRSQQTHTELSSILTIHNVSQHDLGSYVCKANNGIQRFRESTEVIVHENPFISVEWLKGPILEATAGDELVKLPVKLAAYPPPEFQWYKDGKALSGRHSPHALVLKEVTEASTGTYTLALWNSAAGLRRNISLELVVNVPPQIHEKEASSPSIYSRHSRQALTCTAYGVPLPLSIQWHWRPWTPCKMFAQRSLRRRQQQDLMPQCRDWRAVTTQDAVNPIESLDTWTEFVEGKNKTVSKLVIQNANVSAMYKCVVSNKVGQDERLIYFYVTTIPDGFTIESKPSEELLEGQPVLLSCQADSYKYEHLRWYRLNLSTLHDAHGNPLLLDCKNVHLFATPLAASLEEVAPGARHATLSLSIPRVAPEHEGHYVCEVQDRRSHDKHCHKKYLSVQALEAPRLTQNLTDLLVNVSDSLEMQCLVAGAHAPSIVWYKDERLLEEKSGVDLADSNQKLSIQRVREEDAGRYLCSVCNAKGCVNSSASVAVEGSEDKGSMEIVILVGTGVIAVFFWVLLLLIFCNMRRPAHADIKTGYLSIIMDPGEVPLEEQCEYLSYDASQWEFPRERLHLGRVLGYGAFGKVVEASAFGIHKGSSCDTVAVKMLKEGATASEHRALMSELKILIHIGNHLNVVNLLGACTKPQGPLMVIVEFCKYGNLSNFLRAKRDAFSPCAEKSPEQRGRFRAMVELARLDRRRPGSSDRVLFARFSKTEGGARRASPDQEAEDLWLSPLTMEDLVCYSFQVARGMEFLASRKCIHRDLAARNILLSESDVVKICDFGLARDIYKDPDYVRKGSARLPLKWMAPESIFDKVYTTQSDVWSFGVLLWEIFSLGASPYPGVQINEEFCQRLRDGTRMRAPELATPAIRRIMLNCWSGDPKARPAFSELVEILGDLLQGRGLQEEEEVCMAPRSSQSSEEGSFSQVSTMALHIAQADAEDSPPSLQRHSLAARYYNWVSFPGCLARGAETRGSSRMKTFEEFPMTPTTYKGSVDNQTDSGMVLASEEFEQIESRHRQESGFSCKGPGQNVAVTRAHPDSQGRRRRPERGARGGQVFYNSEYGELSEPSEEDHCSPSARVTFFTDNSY

T2 sequence (P35968 20-1356): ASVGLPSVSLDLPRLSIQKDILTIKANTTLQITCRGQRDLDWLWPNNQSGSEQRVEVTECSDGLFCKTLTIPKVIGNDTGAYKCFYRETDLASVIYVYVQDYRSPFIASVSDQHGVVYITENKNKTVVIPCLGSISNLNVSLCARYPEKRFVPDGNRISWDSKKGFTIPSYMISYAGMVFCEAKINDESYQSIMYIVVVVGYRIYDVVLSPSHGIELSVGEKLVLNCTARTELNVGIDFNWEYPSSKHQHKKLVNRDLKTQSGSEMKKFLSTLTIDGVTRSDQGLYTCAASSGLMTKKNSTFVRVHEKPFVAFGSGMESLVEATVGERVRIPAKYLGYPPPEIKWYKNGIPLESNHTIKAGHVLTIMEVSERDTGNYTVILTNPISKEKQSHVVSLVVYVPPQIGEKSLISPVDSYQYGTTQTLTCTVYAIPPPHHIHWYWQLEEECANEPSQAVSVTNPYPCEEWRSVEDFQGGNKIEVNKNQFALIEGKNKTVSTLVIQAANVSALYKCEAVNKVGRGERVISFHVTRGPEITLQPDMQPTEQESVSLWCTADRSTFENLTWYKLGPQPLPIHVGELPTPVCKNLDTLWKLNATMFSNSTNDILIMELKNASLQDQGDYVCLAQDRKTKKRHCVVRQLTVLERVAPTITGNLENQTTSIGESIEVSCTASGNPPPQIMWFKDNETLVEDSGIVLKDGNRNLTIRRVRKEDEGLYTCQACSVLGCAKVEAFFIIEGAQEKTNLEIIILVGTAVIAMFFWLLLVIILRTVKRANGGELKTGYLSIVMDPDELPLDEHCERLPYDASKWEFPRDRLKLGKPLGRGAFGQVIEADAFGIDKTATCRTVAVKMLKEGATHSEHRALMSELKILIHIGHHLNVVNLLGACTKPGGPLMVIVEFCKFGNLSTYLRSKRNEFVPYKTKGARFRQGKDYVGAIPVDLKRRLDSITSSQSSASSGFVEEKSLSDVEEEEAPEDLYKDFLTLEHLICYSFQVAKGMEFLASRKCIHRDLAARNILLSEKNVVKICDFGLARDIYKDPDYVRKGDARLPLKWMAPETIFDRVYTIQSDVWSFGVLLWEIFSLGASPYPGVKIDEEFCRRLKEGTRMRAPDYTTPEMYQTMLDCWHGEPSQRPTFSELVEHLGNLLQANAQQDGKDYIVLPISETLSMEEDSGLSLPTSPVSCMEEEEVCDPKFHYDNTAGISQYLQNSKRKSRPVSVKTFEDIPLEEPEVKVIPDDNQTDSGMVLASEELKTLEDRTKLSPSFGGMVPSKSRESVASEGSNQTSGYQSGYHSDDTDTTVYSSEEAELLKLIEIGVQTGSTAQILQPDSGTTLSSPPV
T1 sequence (Q05397 whole entry): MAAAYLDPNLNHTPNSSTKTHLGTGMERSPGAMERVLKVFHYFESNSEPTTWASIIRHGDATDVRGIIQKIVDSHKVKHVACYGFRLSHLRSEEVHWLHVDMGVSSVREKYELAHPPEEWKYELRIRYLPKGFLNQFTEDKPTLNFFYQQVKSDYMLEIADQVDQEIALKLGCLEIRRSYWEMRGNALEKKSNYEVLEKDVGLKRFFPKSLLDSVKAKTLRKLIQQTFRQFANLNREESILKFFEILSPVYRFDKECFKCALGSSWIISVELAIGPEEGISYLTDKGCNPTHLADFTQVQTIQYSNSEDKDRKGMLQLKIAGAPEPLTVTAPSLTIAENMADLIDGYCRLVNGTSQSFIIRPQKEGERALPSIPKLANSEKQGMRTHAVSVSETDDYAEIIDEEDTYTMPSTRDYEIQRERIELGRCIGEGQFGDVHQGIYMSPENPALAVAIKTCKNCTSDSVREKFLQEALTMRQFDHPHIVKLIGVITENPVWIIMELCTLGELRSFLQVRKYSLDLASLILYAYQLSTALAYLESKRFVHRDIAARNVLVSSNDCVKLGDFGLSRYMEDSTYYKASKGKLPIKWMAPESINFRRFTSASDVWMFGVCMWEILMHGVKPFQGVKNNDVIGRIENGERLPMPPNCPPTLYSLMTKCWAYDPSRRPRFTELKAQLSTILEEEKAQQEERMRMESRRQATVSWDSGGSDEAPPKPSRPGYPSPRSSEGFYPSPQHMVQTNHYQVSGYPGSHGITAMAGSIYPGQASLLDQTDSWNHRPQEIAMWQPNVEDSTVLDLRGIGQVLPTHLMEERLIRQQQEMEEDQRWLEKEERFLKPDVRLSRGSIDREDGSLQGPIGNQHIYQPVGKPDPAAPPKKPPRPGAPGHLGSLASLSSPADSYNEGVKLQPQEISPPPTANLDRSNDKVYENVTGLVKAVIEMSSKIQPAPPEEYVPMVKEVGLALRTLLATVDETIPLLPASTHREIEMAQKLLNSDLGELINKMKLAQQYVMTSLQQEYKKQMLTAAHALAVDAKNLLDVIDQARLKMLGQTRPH
Chain of VEGFR3 cytoplasmic domain (P35916 798-1298 isoform P35916-1): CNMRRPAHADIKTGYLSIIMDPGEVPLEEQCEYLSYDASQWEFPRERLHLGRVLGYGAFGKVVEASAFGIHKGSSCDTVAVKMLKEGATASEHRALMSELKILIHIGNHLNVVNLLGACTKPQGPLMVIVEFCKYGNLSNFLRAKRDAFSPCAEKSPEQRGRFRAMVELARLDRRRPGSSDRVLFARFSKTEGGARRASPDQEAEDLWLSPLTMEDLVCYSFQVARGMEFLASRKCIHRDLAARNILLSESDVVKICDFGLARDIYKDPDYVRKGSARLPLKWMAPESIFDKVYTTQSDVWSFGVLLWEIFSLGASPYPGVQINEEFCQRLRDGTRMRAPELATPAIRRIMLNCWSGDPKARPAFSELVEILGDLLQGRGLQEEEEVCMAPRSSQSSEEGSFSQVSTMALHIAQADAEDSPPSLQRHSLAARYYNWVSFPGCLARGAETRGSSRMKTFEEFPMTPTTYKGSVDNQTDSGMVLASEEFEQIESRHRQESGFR

SMILES: CCC(C(N)=O)c1ccccc1CCc1nc(Nc2ccc(C3CCNCC3)cc2)ncc1C(F)(F)F (racemic) [Compound 1, 2-(2-(2-(2-((4-(Piperidin-4-yl)phenyl)amino)-5-(trifluoromethyl)pyrimidin-4-yl)ethyl)phenyl)butanamide]
IC50 [1]: 1180 nM

IC50 [1]: 517 nM
SMILES: CC(C(N)=O)c1ccccc1CCc1nc(Nc2cnn(C3CCNCC3)c2)ncc1C(F)(F)F (racemic) [Compound 56, 2-(2-(2-(2-((1-(piperidin-4-yl)-1H-pyrazol-4-yl)amino)-5-(trifluoromethyl)pyrimidin-4-yl)ethyl)phenyl)propanamide]

SMILES: NC(=O)C1(c2ccccc2CCc2nc(Nc3ccc(C4CNC4)cc3)ncc2C(F)(F)F)CC1 [Compound 4, 1-(2-(2-(2-((4-(azetidin-3-yl)phenyl)amino)-5-(trifluoromethyl)pyrimidin-4-yl)ethyl)phenyl)cyclopropanecarboxamide]
IC50 [1]: > 2000 nM | IC50 [2]: 2040 nM

SMILES: NC(=O)C1(c2ccccc2CCc2nc(Nc3cnn(C4CCNCC4)c3)ncc2Cl)CC1 [Compound 17, 1-(2-(2-(5-Chloro-2-((1-(piperidin-4-yl)-1H-pyrazol-4-yl)amino)pyrimidin-4-yl)ethyl)phenyl)cyclopropanecarboxamide]
IC50 [3]: 9 nM | IC50 [4]: 62 nM | IC50 [2]: 393 nM

SMILES: CN1CCC(n2cc(Nc3ncc(Cl)c(CCc4ccccc4C4(C(N)=O)CC4)n3)cn2)CC1 [Compound 18, 1-(2-(2-(5-chloro-2-((1-(1-methylpiperidin-4-yl)-1H-pyrazol-4-yl)amino)pyrimidin-4-yl)ethyl)phenyl)cyclopropanecarboxamide]
IC50 [3]: 3 nM | IC50 [4]: 5 nM | IC50 [2]: 21 nM

IC50 [3]: 3 nM | IC50 [4]: 11 nM | IC50 [2]: 248 nM
SMILES: NC(=O)C1(c2ccccc2CCc2nc(Nc3cn[nH]c3)ncc2Cl)CC1 [Compound 19, 1-(2-(2-(2-(1H-Pyrazol-4-ylamino)-5-chloropyrimidin-4-yl)ethyl)phenyl)cyclopropanecarboxamide]

SMILES: NC(=O)C1(c2ccccc2CCc2nc(Nc3cnn(C4CCNC4)c3)ncc2Cl)CC1 (stereo not drawn) [Compound 20, 1-(2-(2-(5-Chloro-2-(1-(pyrrolidin-3-yl)-1H-pyrazol-4-ylamino)pyrimidin-4-yl)ethyl)phenyl)cyclopropanecarboxamide]
IC50 [3]: 7 nM | IC50 [4]: 38 nM | IC50 [2]: 1760 nM

SMILES: CN1CCC(n2cc(Nc3ncc(Cl)c(CCc4ccccc4C4(C(N)=O)CC4)n3)cn2)C1 (stereo not drawn) [Compound 21, 1-(2-(2-(5-Chloro-2-(1-(1-methylpyrrolidin-3-yl)-1H-pyrazol-4-ylamino)pyrimidin-4-yl)ethyl)phenyl)cyclopropanecarboxamide]
IC50 [3]: 7 nM | IC50 [4]: 14 nM | IC50 [2]: 73 nM

SMILES: CC(C(N)=O)c1ccccc1CCc1nc(Nc2cn[nH]c2)ncc1Cl (stereo not drawn) [Compound 35, 2-(2-(2-(2-(1H-Pyrazol-4-ylamino)-5-chloropyrimidin-4-yl)ethyl)phenyl)propanamide]
IC50 [3]: 9 nM | IC50 [4]: 64 nM | IC50 [2]: 3790 nM

SMILES: CC(C(N)=O)c1ccccc1CCc1nc(Nc2cnn(C)c2)ncc1Cl (stereo not drawn) [Compound 36, 2-(2-(2-(5-Chloro-2-(1-methyl-1H-pyrazol-4-ylamino)pyrimidin-4-yl)ethyl)phenyl) propanamide]
IC50 [3]: 16 nM | IC50 [4]: 76 nM | IC50 [2]: 8170 nM

SMILES: CC(C(N)=O)c1ccccc1CCc1nc(Nc2cnn(C3CCN(C)CC3)c2)ncc1Cl (stereo not drawn) [Compound 44, 2-(2-(2-(5-Chloro-2-(1-(1-methylpiperidin-4-yl)-1H-pyrazol-4-ylamino)pyrimidin-4-yl)ethyl)phenyl)propanamide]
IC50 [3]: 9 nM | IC50 [4]: 52 nM | IC50 [2]: 138 nM

SMILES: Cn1cc(Nc2ncc(Cl)c(CCc3ccccc3C(C)(C)C(N)=O)n2)cn1 [Compound 45, 2-(2-(2-(5-Chloro-2-((1-methyl-1H-pyrazol-4-yl)amino)pyrimidin-4-yl)ethyl)phenyl)-2-methylpropanamide]
IC50 [3]: 3 nM | IC50 [4]: 23 nM | IC50 [2]: 370 nM

SMILES: CC(C(N)=O)c1ccccc1CCc1nc(Nc2cnn(C)c2)ncc1C(F)(F)F (stereo not drawn) [Compound 55, 2-(2-(2-(2-((1-Methyl-1H-pyrazol-4-yl)amino)-5-(trifluoromethyl)pyrimidin-4-yl)ethyl)phenyl) propanamide]
IC50 [3]: 15 nM | IC50 [1]: 115 nM

SMILES: NC(=O)C1(c2ccccc2CCc2nc(Nc3ccc(C4CCNCC4)nc3)ncc2C(F)(F)F)CC1 [Compound 68, 1-(2-(2-(2-((6-(Piperidin-4-yl)pyridin-3-yl)amino)-5-(trifluoromethyl)pyrimidin-4-yl)ethyl)phenyl)cyclopropanecarboxamide]
IC50 [3]: 28 nM | IC50 [4]: 51 nM | IC50 [2]: 4080 nM
